Test results reported in PubChem BioAssay AID248 (DTP/NCI, 2004).
Several values for one entry are separate records, joined by “and”; a condition that tells them apart may be missing. Equal entries are not always repeated. Inconclusive results and toxic doses are left out. No stated cut-off is given here; in the data, active means T/C of 150% or more; inactive means T/C below 125%.

Tested on: L1210 leukemia ip in BDF1 mice, survival T/C
Assay: NCI In Vivo Anticancer Drug Screen. Data for tumor model L1210 Leukemia (intraperitoneal) in B6D2F1 (BDF1) mice
Details: endpoint: mean survival time, higher = longer survival
Procedure, shortened: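 Transplanted-tumor mice were given test agent; controls received vehicle only. Survival readings from the two groups were divided (treated over control).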

[1] = dose: 100.0 mg/kg/injection, schedule: Q01DX001 (ip), vehicle: carboxymethylcellulose (CMC)
[2] = dose: 200.0 mg/kg/injection, schedule: Q01DX001 (ip), vehicle: carboxymethylcellulose (CMC)
[3] = dose: 100.0 mg/kg/injection, schedule: Q04DX002 (ip), vehicle: gum acacia
[4] = dose: 200.0 mg/kg/injection, schedule: Q04DX002 (ip), vehicle: gum acacia
[5] = dose: 400.0 mg/kg/injection, schedule: Q04DX002 (ip), vehicle: gum acacia
[6] = dose: 75.0 mg/kg/injection, schedule: Q01DX001 (ip), vehicle: saline
[7] = dose: 100.0 mg/kg/injection, schedule: Q01DX001 (ip), vehicle: Klucel (hydroxypropylcellulose) (HPC)
[8] = dose: 200.0 mg/kg/injection, schedule: Q01DX001 (ip), vehicle: Klucel (hydroxypropylcellulose) (HPC)
[9] = dose: 400.0 mg/kg/injection, schedule: Q01DX001 (ip), vehicle: Klucel (hydroxypropylcellulose) (HPC)
[10] = dose: 100.0 mg/kg/injection, schedule: Q01DX009 (ip), vehicle: saline with Tween-80
[11] = dose: 100.0 mg/kg/injection, schedule: Q04DX003 (ip), vehicle: saline with Tween-80
[12] = dose: 200.0 mg/kg/injection, schedule: Q01DX009 (ip), vehicle: saline with Tween-80
[13] = dose: 200.0 mg/kg/injection, schedule: Q04DX003 (ip), vehicle: saline with Tween-80
[14] = dose: 400.0 mg/kg/injection, schedule: Q01DX009 (ip), vehicle: saline with Tween-80
[15] = dose: 400.0 mg/kg/injection, schedule: Q04DX003 (ip), vehicle: saline with Tween-80
[16] = dose: 100.0 mg/kg/injection, schedule: Q04DX003 (ip), vehicle: Klucel (hydroxypropylcellulose) (HPC)
[17] = dose: 200.0 mg/kg/injection, schedule: Q04DX003 (ip), vehicle: Klucel (hydroxypropylcellulose) (HPC)
[18] = dose: 100.0 mg/kg/injection, schedule: Q04DX003 (ip), vehicle: saline
[19] = dose: 200.0 mg/kg/injection, schedule: Q04DX003 (ip), vehicle: saline

Measured: T/C

CN=C(NO)c1ccccc1C
inactive: [1] 100 % of control | [2] 97 % of control

S=C(NCc1ccco1)Nc1cccc2ccccc12
inactive: [3] 101 % of control | [4] 88 % of control | [5] 98 % of control

Cc1ccnc2c(N)cccc12
inactive: [6] 98 % of control

O=C1C(=O)c2ccccc2C(O)=C1CC=C1CCCCC1
inactive: dose: 100.0 mg/kg/injection, schedule: Q01DX001 (ip), vehicle: water 100 % of control | dose: 100.0 mg/kg/injection, schedule: Q01DX009 (ip), vehicle: water 103 % of control | dose: 200.0 mg/kg/injection, schedule: Q01DX009 (ip), vehicle: water 98 % of control | dose: 400.0 mg/kg/injection, schedule: Q01DX001 (ip), vehicle: water 108 % of control

O=[N+]([O-])c1cccc(-c2cc(-c3cccs3)cc(-c3ccccc3)n2)c1
inactive: [3] 93 % of control | [4] 93 % of control | [5] 93 % of control

O=C(O)C1=CC2C3C=C(C(=O)O)C(C3)C2C1 (configuration not stated)
inactive: [7] 96 % of control | [8] 96 % of control | [9] 97 % of control

CCc1c(C(OC)OC)[nH]c(=S)[nH]c1=O
inactive: [10] 94 % of control | [11] 100 % of control | [12] 100 % of control | [13] 100 % of control | [14] 94 % of control | [15] 105 % of control

CCOC(=O)n1ccc2nc3ccccc3cc21
inactive: [7] 100 % of control | [8] 105 % of control | [9] 90 % of control

CC(C)=NC(=O)NO.[Cl][Ni][Cl]
inactive: dose: 15.0 mg/kg/injection, schedule: Q01DX001 (ip), vehicle: saline 102 % of control | dose: 30.0 mg/kg/injection, schedule: Q01DX001 (ip), vehicle: saline 110 % of control | dose: 60.0 mg/kg/injection, schedule: Q01DX001 (ip), vehicle: saline 111 % of control | [6] 116 % of control

Cc1ccc(CC(O)(CC(O)(c2ccccc2)c2ccccc2)c2ccccc2)cc1C (configuration not stated)
inactive: [6] 92 % of control | dose: 75.0 mg/kg/injection, schedule: Q04DX003 (ip), vehicle: saline 94 % of control | dose: 150.0 mg/kg/injection, schedule: Q01DX001 (ip), vehicle: saline 92 % of control | dose: 150.0 mg/kg/injection, schedule: Q04DX003 (ip), vehicle: saline 91 % of control | dose: 300.0 mg/kg/injection, schedule: Q01DX001 (ip), vehicle: saline 90 % of control | dose: 300.0 mg/kg/injection, schedule: Q04DX003 (ip), vehicle: saline 94 % of control

O=C(O)C(c1ccccc1)N1C(=O)c2ccccc2C1=O (configuration not stated)
inactive: dose: 50.0 mg/kg/injection, schedule: Q04DX003 (ip), vehicle: Klucel (hydroxypropylcellulose) (HPC) 104 % of control | [16] 109 % of control | [17] 104 % of control

NC(=S)N/N=C/c1ccc(F)cc1
inactive: dose: 60.0 mg/kg/injection, schedule: Q01DX Z (oral), vehicle: methylcellulose (MC) 90 % of control | dose: 120.0 mg/kg/injection, schedule: Q01DX Z (oral), vehicle: methylcellulose (MC) 87 % of control

O=C(Nc1ccc(Cl)cc1)Nc1cccc(F)c1
inactive: dose: 100.0 mg/kg/injection, schedule: Q01DX009 (ip), vehicle: Klucel (hydroxypropylcellulose) (HPC) 90 % of control | dose: 200.0 mg/kg/injection, schedule: Q01DX009 (ip), vehicle: Klucel (hydroxypropylcellulose) (HPC) 94 % of control | dose: 400.0 mg/kg/injection, schedule: Q01DX009 (ip), vehicle: Klucel (hydroxypropylcellulose) (HPC) 110 % of control

CC(C)(C)c1cc(CN2CCCC(O)C2)c(O)c(-c2ccccc2)c1 (configuration not stated)
inactive: [18] 98 % of control | [19] 98 % of control

COC(=O)c1ccccc1NC(=O)C(Br)C(Br)C(=O)O (configuration not stated)
inactive: dose: 50.0 mg/kg/injection, schedule: Q01DX009 (ip), vehicle: saline with Tween-80 101 % of control | [10] 96 % of control | [12] 117 % of control

c1ccc(C2=NN=C(c3ccccc3)CCC2)cc1
inactive: dose: 100.0 mg/kg/injection, schedule: Q04DX003 (ip), vehicle: acetone 95 % of control | dose: 200.0 mg/kg/injection, schedule: Q04DX003 (ip), vehicle: acetone 86 % of control | dose: 400.0 mg/kg/injection, schedule: Q04DX003 (ip), vehicle: acetone 98 % of control

CO/C(N)=N\C(=O)NC1CC(OC(=O)c2ccc(C)cc2)C(COC(=O)c2ccc(C)cc2)O1 (configuration not stated)
inactive: [18] 98 % of control | [19] 104 % of control | dose: 400.0 mg/kg/injection, schedule: Q04DX003 (ip), vehicle: saline 96 % of control

CC(C)CCSc1ccccc1
inactive: dose: 18.75 mg/kg/injection, schedule: Q01DX009 (ip), vehicle: acetone 91 % of control | dose: 37.5 mg/kg/injection, schedule: Q01DX009 (ip), vehicle: acetone 92 % of control | dose: 37.5 mg/kg/injection, schedule: Q04DX003 (ip), vehicle: acetone 100 % of control | dose: 75.0 mg/kg/injection, schedule: Q01DX001 (ip), vehicle: acetone 100 % of control | dose: 75.0 mg/kg/injection, schedule: Q01DX009 (ip), vehicle: acetone 91 % of control | dose: 75.0 mg/kg/injection, schedule: Q04DX003 (ip), vehicle: acetone 90 % of control | dose: 150.0 mg/kg/injection, schedule: Q01DX001 (ip), vehicle: acetone 94 % of control | dose: 150.0 mg/kg/injection, schedule: Q04DX003 (ip), vehicle: acetone 95 % of control

CC1(C)OC2OC(COC(=O)c3ccccc3)C(O)C2O1 (configuration not stated)
inactive: dose: 50.0 mg/kg/injection, schedule: Q01DX001 (ip), vehicle: carboxymethylcellulose (CMC) 98 % of control | [1] 101 % of control | [2] 104 % of control | dose: 400.0 mg/kg/injection, schedule: Q01DX001 (ip), vehicle: carboxymethylcellulose (CMC) 98 % of control

O=C(O)c1cccc(C2CCCCC2)c1
inactive: dose: 75.0 mg/kg/injection, schedule: Q01DX001 (ip), vehicle: other 106 % of control | dose: 150.0 mg/kg/injection, schedule: Q01DX001 (ip), vehicle: other 97 % of control | dose: 300.0 mg/kg/injection, schedule: Q01DX001 (ip), vehicle: other 101 % of control

CC(=O)Nc1nc2oc(C)nc2c(=O)[nH]1
inactive: [7] 104 % of control | [8] 97 % of control | [9] 103 % of control

S=c1cc(-c2ccco2)ss1
inactive: [10] 93 % of control | [11] 90 % of control | [12] 91 % of control | [13] 95 % of control | [14] 90 % of control | [15] 96 % of control

O=C(OCC(O)C1OC(c2ccccc2)OC1C(O)COC(=O)c1ccccc1)c1ccccc1 (configuration not stated)
inactive: dose: 50.0 mg/kg/injection, schedule: Q04DX003 (ip), vehicle: saline with Tween-80 102 % of control | [11] 92 % of control and 91 % of control | [13] 105 % of control | [15] 89 % of control

CC(=O)C(CCC(=O)O)(CCC(=O)O)c1ccccc1
inactive: dose: 30.0 mg/kg/injection, schedule: Q01DX Z (ip), vehicle: other 100 % of control | dose: 60.0 mg/kg/injection, schedule: Q01DX Z (ip), vehicle: other 101 % of control | [16] 92 % of control | dose: 120.0 mg/kg/injection, schedule: Q01DX Z (ip), vehicle: other 95 % of control | [17] 97 % of control | dose: 240.0 mg/kg/injection, schedule: Q01DX Z (ip), vehicle: other 95 % of control | dose: 400.0 mg/kg/injection, schedule: Q04DX003 (ip), vehicle: Klucel (hydroxypropylcellulose) (HPC) 102 % of control

CC(C)C1(NC(=O)C2C=C3c4cccc5[nH]cc(c45)CC3N(C)C2)OC2(O)C3CCCN3C(=O)C(Cc3ccccc3)N2C1=O (configuration not stated) (tested in a mixture with another compound)
inactive: dose: 100.0 mg/kg/injection, schedule: Q01DX001 (ip), vehicle: saline 107 % of control | dose: 200.0 mg/kg/injection, schedule: Q01DX001 (ip), vehicle: saline 102 % of control | dose: 400.0 mg/kg/injection, schedule: Q01DX001 (ip), vehicle: saline 100 % of control
